Assay results from patent US20110009435A1, “HETERO BICYCLIC CARBOXAMIDE DERIVATIVES AND THEIR PHARMACEUTICAL USE AND COMPOSITIONS” (Pfizer, Inc., priority 2007, published 2011).

Legend:
Assay type in all cases: biochemical
[1] = molecular target: T1, catalytic domain of human recombinant MMP-3 (Homo sapiens, UniProt P08254); experiment: In vitro MMP inhibition assay, MMP-3 catalytic domain (fluorogenic peptide substrate cleavage, Ki); conditions: human MMP-3, catalytic domain (CD); read-out: hMMP Ki 03/CD
T1 construct: made in house
T1 sequence (P08254 100-272 limits assumed): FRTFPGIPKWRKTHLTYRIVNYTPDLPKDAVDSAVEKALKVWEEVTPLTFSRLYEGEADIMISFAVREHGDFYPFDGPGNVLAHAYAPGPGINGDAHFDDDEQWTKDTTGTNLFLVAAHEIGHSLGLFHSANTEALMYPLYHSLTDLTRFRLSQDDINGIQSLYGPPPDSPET
Summary of the method: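 The MMP-3 catalytic domain was expressed in E. coli and refolded with zinc. It was preincubated with inhibitor for 1 hr at room temperature in MES buffer pH 6.0 with 1% DMSO, then 4 μM Mca/Dnp fluorogenic peptide was added (ex 330/em 420 nm). Ki came from Morrison-equation fits of rates, with substrate at or below Km and no substrate correction.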

Human recombinant MMP-9 = molecular target: T2, Human recombinant MMP-9 (Homo sapiens, UniProt P14780); experiment: In vitro MMP inhibition assay, MMP-9 (fluorogenic peptide substrate cleavage, Ki); conditions: human MMP-9, full length (FL); read-out: hMMP Ki 09/FL
T2 construct: made in house; host or cells: MMP-9-transfected HT1080 cells
T2 sequence (P14780 107-707 limits assumed): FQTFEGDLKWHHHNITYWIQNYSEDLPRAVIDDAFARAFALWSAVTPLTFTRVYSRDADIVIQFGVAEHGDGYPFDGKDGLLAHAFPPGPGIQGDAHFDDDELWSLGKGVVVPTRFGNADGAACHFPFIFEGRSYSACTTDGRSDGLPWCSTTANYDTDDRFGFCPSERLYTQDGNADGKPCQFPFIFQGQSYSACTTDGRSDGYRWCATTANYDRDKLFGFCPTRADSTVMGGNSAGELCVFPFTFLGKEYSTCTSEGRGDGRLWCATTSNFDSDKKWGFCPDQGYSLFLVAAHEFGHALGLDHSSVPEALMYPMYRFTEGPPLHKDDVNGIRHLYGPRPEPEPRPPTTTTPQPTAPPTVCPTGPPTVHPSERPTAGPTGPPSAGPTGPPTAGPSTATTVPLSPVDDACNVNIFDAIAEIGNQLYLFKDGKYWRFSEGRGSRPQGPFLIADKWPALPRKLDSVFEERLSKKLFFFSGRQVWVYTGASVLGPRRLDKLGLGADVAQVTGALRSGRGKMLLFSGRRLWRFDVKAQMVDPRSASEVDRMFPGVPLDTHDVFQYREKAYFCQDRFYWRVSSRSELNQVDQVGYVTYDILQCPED
Description: (§1) Matrix Metalloproteinase inhibitor compounds were analyzed in in vitro MMP Inhibition assays to determine their ability to inhibit the MMP cleavage of peptide substrates. Inhibition constants (Ki) were calculated from the assayed compound-MMP interactions.
(§2) Human recombinant MMP-1, MMP-2, MMP-3, MMP-7, MMP-9, MMP-12, MMP-13, MMP-14 and MMP-15 were used in these assays. The enzymes are prepared following known laboratory procedures. Protocols for the preparation and use of these enzymes are available in the scientific literature. See, e.g., Enzyme Nomenclature (Academic Press, San Diego, Calif., 1992) and the citations therein. See also Frije et al., J. Biol. Chem., 26(24), 16766-73 (1994).
The MMP-1 proenzyme may be purified from spent media of MMP-1-transfected HT-1080 cells and the protein purified on a zinc chelating column. The MMP-2 proenzyme may be purified by gelatin Sepharose chromatography from MMP-2-transfected p2AHT2 cells. […]
The inhibitors are analyzed using a single low enzyme concentration with a single substrate concentration fixed at or below the Km. […] Apparent inhibitory constants are determined by non-linear regression of reaction velocity as a function of inhibitor and enzyme concentration using Morrison's equation, as described by Kuzmic, Anal. Biochem. 286, 45-50 (2000). […]

Human recombinant MMP-15 = molecular target: T3, Human recombinant MMP-15 (Homo sapiens, UniProt P51511); experiment: In vitro MMP inhibition assay, MMP-15 catalytic domain (fluorogenic peptide substrate cleavage, Ki); conditions: human MMP-15, catalytic domain (CD); read-out: hMMP Ki 15/CD
T3 construct: The catalytic domain of MMP-12 and MMP-15 enzymes were purchased commercially for these assays; purchased
T3 sequence (P51511 132-304 limits assumed): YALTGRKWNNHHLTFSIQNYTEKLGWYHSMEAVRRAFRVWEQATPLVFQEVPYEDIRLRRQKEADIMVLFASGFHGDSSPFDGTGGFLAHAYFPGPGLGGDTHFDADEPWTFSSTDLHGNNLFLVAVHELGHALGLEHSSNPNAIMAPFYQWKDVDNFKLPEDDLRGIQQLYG
Description: as §1, §2
The catalytic domain of MMP-12 and MMP-15 enzymes were purchased commercially for these assays.
The fluorogenic, methoxycoumarin-containing polypeptide substrate MCA-ArgProLeuGlyLeuDpaAlaArgGluArgNH2 was used as the MMP substrate in the MMP inhibition assays for human recombinant MMP-1, MMP-2, MMP-7, MMP-9, MMP-12, MMP-13, MMP-14 and MMP-15. Here, “MCA” is 7-methoxycoumarin-4-yl acetyl and “Dpa” is 3-(2,4-dinitrophenyl)-L-2,3-di-aminopropionyl group. In the absence of MMP inhibitory activity, the substrate is cleaved at the Gly-Leu peptide bond. The cleavage separates the highly fluorogenic peptide from the 2,4-dinitrophenyl quencher, resulting in an increase of fluorescent intensity.
For the human MMP-1, MMP-2, MMP-7, MMP-9, MMP-12, MMP-13, MMP-14 and MMP-15 assays, dilutions of the inhibitors (or salts thereof) were prepared in 100% dimethyl sulfoxide (DMSO). The stock solutions were diluted in Buffer A (100 mM Tris-HCl, 100 mM NaCl, 10 mM CaCl2, 0.005% polyoxyethylene 23 lauryl ether, pH 7.5) to obtain solutions with different compound concentrations, i.e., assay solutions with different concentrations of the assayed MMP inhibitory compound in 1% DMSO. The experiment controls contained the same amount of Buffer A/DMSO as the assayed sample, but contained no inhibitor.
To determine Ki, the inhibitor samples are incubated at room temperature for 1 hr in the presence of enzyme and then 4 μM of appropriate MMP substrate was added, and samples were analyzed on a Tecan SpectraFlour Plus plate reader. The excitation wavelength is 330 nm, and the emission (fluorescence) wavelength is 420 nm. In the absence of MMP inhibitory activity, the substrate is cleaved at the Gly-Leu bond resulting in an increase of relative fluorescence. Inhibition is observed as a reduced rate of increase in relative fluorescence.
The inhibitors are analyzed using a single low enzyme concentration with a single substrate concentration fixed at or below the Km. This protocol is a modification of method by Knight et al., FEBS Lett., 296(3), 263-266 (1992). Apparent inhibitory constants are determined by non-linear regression of reaction velocity as a function of inhibitor and enzyme concentration using Morrison's equation, as described by Kuzmic, Anal. Biochem. 286, 45-50 (2000). Modifications were made in the non-linear regression method to allow a common control reaction rate and effective enzyme concentration to be shared between all dose-response relationships on a given assay plate. Since the substrate concentration was chosen to be at or below the Km, the apparent Ki's from this analysis were reported as Ki's without correction for the influence of substrate.

Ki [1]: 1.57 µM
Ki (Human recombinant MMP-9): > 10 µM
Ki (Human recombinant MMP-15): > 10 µM
Structure (SMILES): COc1cccc(CNC(=O)c2nc3ccc(F)c(OCCC4CCN(C(=O)CO)CC4)c3c(=O)[nH]2)c1 [Example 34, 6-fluoro-5-[2-(1-glycoloylpiperidin-4-yl)ethoxy]-N-(3-methoxybenzyl)-4-oxo-3,4-dihydroquinazoline-2-carboxamide]
